# Values of other authors in US20210393545A1, “NATURAL PRODUCT COMPOSITION FOR STIMULATING HAIR GROWTH” (priority 2018, published 2021).
# Experiments:
# [1] = system: testosterone 5 alpha reductase; conditions: reported in the literature
# OR2AT4 = target: T1, OR2AT4 (Homo sapiens, UniProt A6NND4); conditions: human hair follicles ex vivo
# T1 construct: from tissue; host or cells: human hair follicles (outer root sheath epithelium), ex vivo
# T1 sequence (A6NND4 1-320): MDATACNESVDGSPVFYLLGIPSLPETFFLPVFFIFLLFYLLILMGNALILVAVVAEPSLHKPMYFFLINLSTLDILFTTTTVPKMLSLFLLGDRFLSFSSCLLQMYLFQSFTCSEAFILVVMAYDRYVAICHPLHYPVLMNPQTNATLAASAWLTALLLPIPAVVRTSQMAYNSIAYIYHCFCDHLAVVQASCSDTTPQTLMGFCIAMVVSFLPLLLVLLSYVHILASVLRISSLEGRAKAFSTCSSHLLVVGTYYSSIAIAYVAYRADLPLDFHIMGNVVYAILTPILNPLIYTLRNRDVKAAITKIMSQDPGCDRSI
apoptosis (OR2AT4),human hair growth ex vivo (OR2AT4),SMILES,5 alpha reductase activity [1],production of IGF-1 (OR2AT4)
–,–,CC(C)c1cc2c(c(O)c1O)[C@@]1(C(=O)O)CCCC(C)(C)[C@@H]1CC2 [carnosic acid],active ingredient in suppressing 5 alpha reductase activity,–
decreasing apoptosis,prolongs human hair growth ex vivo,"CC1=CCC(CCC(C)C(C)O)C1(C)C (stereo not shown) [Sandalore®, 3-methyl-5(2,2,3-Trimethylcyclepent-3-en-1-yl) pentan-2-ol]",–,increasing production of the anagen-prolonging growth factor IGF-1
